This passage reports melting point results from a melting point compilation (Tetko et al.; mined from patent text by program, amines drawn as free bases though some values may be those of a salt).

In general, melting point refers to the temperature, or range, at which the solid turns liquid.

`CC1(C)c2ccc(C(O)CN3CCN(c4nsc5ccccc45)CC3)cc2C(C)(C)C1O` (configuration not stated) displayed a melting point of 88 to 97 °C. Compound `O=C(O)c1ccc(Cn2c(=O)sc3ccc(C#CCc4ccccc4)cc3c2=O)cc1` came in with a melting point of 240 to 242 °C. Compound `Cc1cc2c(cc1O)OC[C@@H](N1CCC(O)(c3ccc(F)cc3)CC1)[C@H]2O` (relative stereo) registered a melting point of 174 °C. The compound `CC(C)C[C@H](NC(=O)OCC1c2ccccc2-c2ccccc21)C(=O)OC(C)(C)C` gave a melting point of 183 to 184 °C.

For `COC(=O)Nc1ccc(Br)c(C)c1`, the melting point lay in the range of 71 to 72 °C. Under `CN1C(=O)CN=C(c2ccccc2F)c2cc(NC(=O)N3CCSC3)ccc21` stands 185 °C.

On to `CC(C)c1cccc(C(C)C)c1NC(=O)CN1CCCN(CCCSc2nc3ccccc3o2)CC1`, for which the melting point was in the range of 109 to 111 °C. Under `CCC(=O)NNC(=O)c1ccncc1` stands 131 °C.

Regarding `FC(F)(F)c1nnc(SCc2ccccc2Cl)s1`, the melting point lay within 36 to 37 °C. Under `CCOC(=O)c1c(CC)nn2ccc3c(c12)CCO3` stands 110 to 111 °C; under `CC(=O)CCc1nsc2ccc(-n3c(=O)cc(C(F)(F)F)n(C)c3=O)cc12`, 198 to 199 °C; under `COc1cc2[nH]c(=O)c3c(c2cc1OC)CCN(CCN(C)C)C3`, 160 to 164 °C. Next, `CC(C)CCCC(C)C1CCC2C3CC=C4CC(N)CCC4(C)C3CCC12C` (configuration not stated): 92 to 94 °C.

In the case of `C[C@@H]1OC(=O)N(C(=O)O)[C@H]1c1ccc(F)c(F)c1` (relative stereo), the melting point lay within 80 to 83 °C.

Take `CCC(=O)Nc1n[nH]c(C(C)(C)C)c1Cl`: the melting point lay in the range of 136 to 137 °C. Next, `COc1cc(N)c(C(=O)CS(C)=O)cc1OC` (configuration not stated): 162 to 164 °C; `CCCCCCCCCCOc1cc(OCCCCCCCCCC)cc(N2CC(=O)OC(=O)C2)c1`: 62 °C. Under `CCOC(=O)c1ccc(C=C(C)C)c(OC)c1` stands 42 °C. The compound `CNC(=O)Cc1ccccc1[N+](=O)[O-]` yielded a melting point of 147 °C. With `COC(=O)CNC(=O)c1ccc(I)cc1`, the melting point lay within 166 to 168 °C. Next, `FC(F)(F)c1ccc(-c2cc(Oc3cccc4ccncc34)ncn2)cc1`: 194 to 195 °C; `Cn1ccc2cc(Nc3ccncc3)ccc21`: 202 to 203 °C. Turning to `C1=C(/C=C/c2cccs2)CCN(Cc2c[nH]c3ncccc23)C1`, the melting point was 202 to 204 °C. Next, `c1ccc2c(c1)N=C(N1CCNCC1)c1sccc1N2`: 203 to 206 °C.

Consider `Cc1cc(C(=O)N2Cc3cccn3Cc3ccccc32)ccc1N`, for which the melting point was in the range of 232 to 234 °C. On to `CCCc1nc2c(N)nc3ccc(-c4ccc(NC(C)=O)cc4)cc3c2s1`, for which the melting point lay within 251 to 254 °C. Under `COc1ccc2ccc(N3C(=O)c4ccccc4C3CC(=O)CCN(C)C)nc2n1` (configuration not stated) stands 140 °C; under `CCOC(=O)c1c(C)nc2c(nc(C)n2C)c1OCC`, 85 to 87 °C; under `CC(=O)OCC1CCC2C3CCC4=CC(=O)CCC4(C)C3CCC12C` (configuration not stated), 141 to 142 °C.

`CCC(NC(Cc1cccnc1C)=NC#N)c1ccccc1` (configuration not stated) came in with a melting point of 52 to 54 °C.

For `Nc1nc2ccccc2n1-c1ccc(I)cc1`, the melting point was in the range of 212 to 214 °C.

`N#CC(C(N)=O)=C1Cc2ccccc2SN1` returned a melting point of 260 to 267 °C.

`CC(C(O)c1ccc(OC(=O)c2ccc(CNC(C)(C)C)cc2)cc1)N1CCC(O)(c2ccccc2)CC1` (configuration not stated) registered a melting point of 195 to 197 °C.

`O=[N+]([O-])c1cc(OCc2ccccc2)ccc1CCCl` showed a melting point of 38 to 40 °C.

Take `CC(C)(Cl)c1cc(C(C)(C)Cl)cc(C(C)(C)Cl)c1`: the melting point turned out to be 64 °C.

In turn, `O=C1CCCc2cc(Sc3ccccc3)cc(F)c21` gave a melting point of 112 to 113 °C. Under `OC1CN(Cc2nc(-c3ccc4c(c3)Nc3ccccc3S4)cs2)C1` stands 240 to 242 °C; under `COc1ccc(C=CC(=O)Nc2ccc(C)cc2C(=O)O)cc1OC`, 190 to 191 °C. `COC(=O)c1cc2c3ccccc3n(C(=O)c3ccccc3)c2s1` registered a melting point of 150 to 151 °C. Next, `OCCN1CCN(Cc2nnc3n2-c2ccc(Cl)cc2C(c2ccccc2)=NC3)CC1`: 113 to 118 °C. Under `[N-]=[N+]=N[C@H]1C[C@H](C(=O)O)C1` stands 39 to 41 °C. Under `COC(=O)[C@H](CC(=O)OC(C)(C)C)NC(=O)c1cccc(NC(=O)OCc2ccccc2)c1` stands 115 to 116 °C; under `COc1ccc(CNC(=O)c2cc3c(=O)n(Cc4ccc(C(=O)O)cc4)cnc3cn2)cc1`, 245 to 246 °C; under `CC(=O)SC(Cc1ccc(F)cc1)C(=O)O` (configuration not stated), 44 to 46 °C. For `COc1cc2ncnc(N3CCC(CN4C=CC(C)=NS4(=O)=O)CC3)c2cc1OC`, the melting point lay in the range of 203 to 207 °C. Next, `CCOc1ccc(C2=NN(Cc3ccc(C(=O)O)cc3)C(=O)[C@H]3CCCC[C@@H]23)cc1OCC` (relative stereo): 152 to 154 °C; `CN(O)C(=N)c1nn(-c2c(Cl)cc(C(F)(F)F)cc2Cl)c(N)c1S(=O)C(F)(F)F` (configuration not stated): 187 to 191 °C. Under `CC(=O)SCC(Cc1ccccc1)C(=O)Nc1ccc(O)c(C(=O)O)c1` (configuration not stated) stands 185 to 188 °C. Consider `CCOC(=O)c1nc(-c2ccsc2)n(-c2cccc(Cl)c2F)c1-c1ccc(F)c(Cl)c1`, for which the melting point fell in the range of 207 to 209 °C.

As for `CCOC(=O)C(C=O)Cc1ccc(C)nc1` (configuration not stated), the melting point is 142 to 144 °C. The compound `Cc1c(-c2ccc3c(c2)OCO3)[nH]c2ccc(OCc3ccccc3)cc12` gave a melting point of 142 to 145 °C. For `CC(C)(C)OC(=O)N1CCNC(=O)C1Sc1ccccc1` (configuration not stated), the melting point was 138 to 140 °C. Next, `CCOc1ccc2c(c1)n(C1CCCCC1)c(=O)n2Cc1ccc(NC(=NC#N)NC)cc1OC`: 195 °C; `CCCN(Cc1ccc(-c2ccccc2-c2nnnn2C(c2ccccc2)(c2ccccc2)c2ccccc2)cc1)c1ncncc1C(=O)OCC`: 100 to 103 °C; `CC(=O)NC1C(C)(C)c2ccc(CCN3CCN(c4nsc5ccccc45)CC3)cc2C1(C)C` (configuration not stated): 75 to 80 °C. In turn, `COc1ccc(N2CCN(Cc3n[nH]c4cc(Cl)ccc34)CC2)cc1` gave a melting point of 182 to 184 °C. Under `CC(C)(CO)CCCCN1C(=O)c2ccccc2C1=O` stands 74.8 to 75 °C. Next, `COC(=O)CCCCCOC1OC(CO)C(O)C(O)C1NC(C)=O` (configuration not stated): 154 to 155 °C; `CC(C)(C)OC(=O)N1CCN(C(=O)c2ccc3n2Cc2ccccc2N(C(=O)C2=CC=C(c4ccccc4)C(C)(C(F)(F)F)C2)C3)CC1` (configuration not stated): 104 to 121 °C; `C(=C\c1nc(COc2ccc(CCCn3cnc4ccccc43)cc2)co1)/c1ccccc1`: 115 to 117 °C. `Cc1cccc(C2CNCCN2C(=O)N(c2ccccc2)c2ccccc2)c1` (configuration not stated) showed a melting point of 119 to 121 °C.

As to `COc1cc(CC(C)=O)ccc1OCC(O)CN1CCN(c2ccccc2C)CC1` (configuration not stated), the melting point turned out to be 128 °C. For `Oc1ccc(-c2ccc(-c3ccc(F)cc3)nc2-c2ccc(OCCN3CCCCC3)cc2)cc1`, the melting point lay within 194 to 195 °C. Next, `CCc1nc(-c2nn(Cc3ccccc3F)c3ccccc23)oc1CO`: 144 °C; `CCNC(=O)c1ccc(OCC(O)c2ccc3c(c2)C(C)(C)CCC3(C)C)cc1O` (configuration not stated): 65 to 70 °C; `CO/C=C1/C(=O)NC(=O)c2ccc(Br)cc21`: 210 to 211 °C. Next, `CC1NC(=O)NN=C1c1ccc(NC(=O)CN2CCOCC2)cc1` (configuration not stated): 244 to 247 °C; `COc1cccc2c1nc(C(F)F)n2-c1nc(NC2CCN(C(=O)OC(C)(C)C)CC2)c(N)c(N2CCOCC2)n1`: 223 to 225 °C.

The compound `CCCCc1ccc(-c2ccc(CCc3ccc(OC)cc3)cc2)c(F)c1` showed a melting point of 49 °C. In turn, `COC(=O)C1=C(C)NC(C)=C(C(=O)OCCCCCCCCBr)C1c1cccc([N+](=O)[O-])c1` (configuration not stated) yielded a melting point of 115 °C. Under `Fc1ccc(-c2cc(C(F)(F)F)n3cnc(-c4cccnc4)c3n2)cc1Cl` stands 188 °C; under `COc1ccc2[nH]c3cc(-c4ccccc4-c4ccccc4)c4c(c3c2c1)C(=O)NC4=O`, 220 to 223 °C. The compound `CC(C)c1ccc(-c2nn(C)c(=O)c3ccccc23)cc1` gave a melting point of 107 to 108 °C. Under `CN(c1ccc(O)cc1)c1cc2ccc(Cl)cc2c(O)n1` stands 266 °C; under `COc1cccc(-n2c(-c3cc(-c4ccccc4)c(N4CCOCC4)s3)nc3ccccc3c2=O)c1`, 269 to 272 °C. In the case of `CC(=NN(C1=NNC(=O)CC1)c1ccccc1)c1ccccc1`, the melting point fell in the range of 176 to 178 °C. As to `S=C(Nc1cc(Cl)cc(Cl)c1)Nc1cc(OCc2cccc3ccccc23)ccc1Br`, the melting point lay in the range of 149 to 151 °C. `NC(=O)c1ccc(I)c([N+](=O)[O-])c1` yielded a melting point of 152 to 155 °C.

In turn, `O=C(Cc1cccs1)c1c(O)c2cccnc2n(-c2ccccc2)c1=O` came in with a melting point of 197 to 199 °C.

Regarding `CC(=O)CC(=O)OCN1C(=O)c2ccccc2C1=O`, the melting point lay within 106 to 109 °C. In turn, `CCCOc1nc(N[C@@H](C)Cc2ccccc2)c2cnn(-c3ccccc3)c2n1` registered a melting point of 134 to 136 °C. Next, `Nc1n[nH]c2c1c1cc(Cl)c(Cl)cc1n2C1OC(CO)C(O)C1O` (configuration not stated): 198 to 201 °C; `O=C1c2cc3c(cc2CCC1Br)OCC3` (configuration not stated): 106 °C; `COc1ccccc1-c1ccc(C(=O)N2Cc3ccc(C(=O)NCc4cccnc4)n3Cc3ccccc32)cc1C`: 119 to 124 °C.

`COc1ccc(CN(C)CCCOc2cccc(NC(=O)c3cccc4c(=O)c5cccc(OC)c5[nH]c34)c2)cc1OC`: the melting point worked out at 124 °C. In turn, `CCOC(=O)c1c(N2CCN(C(=O)c3ccco3)CC2)c2cc(F)cnc2n(Cc2ccccc2)c1=O` came in with a melting point of 119 °C. `O=C(OCC(F)(F)C(F)C(F)(F)F)C(F)CF` (configuration not stated) displayed a melting point of 84 to 86 °C.
